Experimental data published in US4753953A, “Pyridonecarboxylic acid derivatives and antibacterial pharmaceutical compositions thereof” (priority 1985, dated 1988).
In brackets after ≈: the same amount, converted by molar mass. Read-outs that look alike come from different tables or passages of the source.

Key:
Experiment in all cases: MIC, in vitro antibacterial activity (standard strains)
[1] = tested on: Peptococcus magnus KY 017; format: cell-based; conditions: Finegoldia magna, KY017; 10^6 cells/ml; Gram +; read-out: MIC
P. maltophilia GIFU 2491 = format: cell-based; conditions: Stenotrophomonas maltophilia, GIFU2491; 10^6 cells/ml; Gram -; read-out: MIC
B. fragilis 25285 = format: cell-based, Bacteroides fragilis; conditions: Bacteroides fragilis, 25285; 10^6 cells/ml; Gram -; read-out: MIC
E. coli ML 4707 = format: cell-based, Escherichia coli; conditions: Escherichia coli, ML4707, 10^6 cells/ml; Gram -; Table 1; read-out: MIC
[2] = tested on: Escherichia coli NIHJ JC-2; format: cell-based; conditions: Escherichia coli, NIHJJC2; 10^6 cells/ml; Gram -; read-out: MIC
[3] = tested on: Acinetobacter anitratus IID 876; format: cell-based; conditions: Acinetobacter calcoaceticus, IID876; 10^6 cells/ml; Gram -; read-out: MIC
[4] = tested on: Yersinia enterocolitica IID 981; format: cell-based; conditions: Yersinia enterocolitica, IID981; 10^6 cells/ml; Gram -; read-out: MIC
[5] = tested on: Fusobacterium mortiferum 4249; format: cell-based; conditions: Fusobacterium mortiferum, 4249; 10^6 cells/ml; Gram -; read-out: MIC
[6] = tested on: Propionibacterium acens 11828; format: cell-based; conditions: Propionibacterium, 11828; 10^6 cells/ml; Gram +; read-out: MIC
[7] = tested on: Streptococcus pyogenes (S-8); format: cell-based; conditions: Streptococcus pyogenes; 10^6 cells/ml; Gram +; read-out: MIC
[8] = tested on: Pseudomonas aeruginosa V-1; format: cell-based; conditions: Pseudomonas aeruginosa, V1
[9] = tested on: Citrobacter freundii IID 976; format: cell-based; conditions: Citrobacter freundii, IID976; 10^6 cells/ml; Gram -; read-out: MIC
Shigella sonnei IID 969 = format: cell-based; conditions: Shigella sonnei, IID969; 10^6 cells/ml; Gram -; read-out: MIC
Method: Minimal inhibitory concentrations (MICs) were determined in accordance with the method recommended by Japan Society of Chemotherapy.

[10] = tested on: Enterobacter cloacae IID 977; format: cell-based; conditions: Enterobacter cloacae, IID977; 10^6 cells/ml; Gram -; read-out: MIC
S. epidermidis IID 866 = format: cell-based; conditions: Staphylococcus epidermidis, IID866; 10^6 cells/ml; Gram +; read-out: MIC
F. varium KYA 8501 = format: cell-based; conditions: Fusobacterium varium, KYA8501; 10^6 cells/ml; Gram -; read-out: MIC
[11] = 10^6 cells/ml, Gram -, read-out: MIC

| Structure (SMILES) | MIC [1] [µg/mL] | MIC (P. maltophilia GIFU 2491) [µg/mL] | MIC (B. fragilis 25285) [µg/mL] | MIC (E. coli ML 4707) [µg/mL] | MIC [2] [µg/mL] | MIC [3] [µg/mL] | MIC [4] [µg/mL] | MIC [5] [µg/mL] | MIC [6] [µg/mL] | MIC [7] [µg/mL] | MIC [8, 11] [µg/mL] | MIC [9] [µg/mL] | MIC (Shigella sonnei IID 969) [µg/mL] | MIC [10] [µg/mL] | MIC (S. epidermidis IID 866) [µg/mL] | MIC (F. varium KYA 8501) [µg/mL] | MIC [8] [µg/mL] |
| --- | --- | --- | --- | --- | --- | --- | --- | --- | --- | --- | --- | --- | --- | --- | --- | --- | --- |
| CC1COc2c(N3C[C@@H](N)[C@@H](C)C3)c(F)cc3c(=O)c(C(=O)O)cn1c23.Cl (relative stereo) [Example 29, 10-(cis-3-Amino-4-methyl-1-pyrrolidinyl)-9-fluoro-2,3-dihydro-3-methyl-7-oxo-7H-pyrido[1,2,3-de][1,4]benzoxazine-6-carboxylic acid hydrochloride] | 0.78 | 1.56 | 1.56 | 0.05 | 0.025 | 1.56 | 0.2 | 0.78 | 12.5 | 0.39 | 0.39 | 0.1 | 0.05 | 0.2 | 0.2 | 6.25 |  |
| C[C@@H]1CN(c2c(F)cc3c(=O)c(C(=O)O)cn(C4CC4)c3c2Br)C[C@H]1N (relative stereo) [Example 32, 7-(trans-3-Amino-4-methyl-1-pyrrolidinyl)-8-bromo-1-cyclopropyl-6-fluoro-1,4-dihydro-4-oxo-3-quinolinecarboxylic acid] | 0.05 (≈ 0.118 µM) | 0.05 (≈ 0.118 µM) | 0.1 (≈ 0.236 µM) | 0.0125 (≈ 0.0295 µM) | 0.0063 (≈ 0.0148 µM) | 0.025 (≈ 0.0589 µM) | 0.025 (≈ 0.0589 µM) | 0.2 (≈ 0.471 µM) | 1.56 (≈ 3.68 µM) | 0.1 (≈ 0.236 µM) |  | 0.025 (≈ 0.0589 µM) | 0.0063 (≈ 0.0148 µM) | 0.05 (≈ 0.118 µM) | 0.05 (≈ 0.118 µM) | 0.78 (≈ 1.84 µM) | 0.2 (≈ 0.471 µM) |
| C[C@H]1CN(c2cc3c(cc2F)c(=O)c(C(=O)O)cn3C2CC2)C[C@H]1N (relative stereo) [Example 33, 7-(cis-3-Amino-4-methyl-1-pyrrolidinyl)-1-cyclopropyl-6-fluoro-1,4-dihydro-4-oxo-3-quinolinecarboxylic acid] | 0.39 (≈ 1.13 µM) | 0.39 (≈ 1.13 µM) | 1.56 (≈ 4.52 µM) | 0.05 (≈ 0.145 µM) | 0.05 (≈ 0.145 µM) | 0.1 (≈ 0.29 µM) | 0.05 (≈ 0.145 µM) | 1.56 (≈ 4.52 µM) | 12.5 (≈ 36.2 µM) | 0.78 (≈ 2.26 µM) | 0.2 (≈ 0.579 µM) | 0.05 (≈ 0.145 µM) | 0.05 (≈ 0.145 µM) | 0.05 (≈ 0.145 µM) | 0.1 (≈ 0.29 µM) | 12.5 (≈ 36.2 µM) |  |
| CC1CN(c2c(F)cc3c(=O)c(C(=O)O)cn(C4CC4)c3c2Cl)CC1CN (stereo not drawn) [Example 1, 7-(3-Aminomethyl-4-methyl-1-pyrrolidinyl)-8-chloro-1-cyclopropyl-6-fluoro-1,4-dihydro-4-oxo-3-quinolinecarboxylic acid] | ≤ 0.05 | 0.1 (≈ 0.254 µM) | ≤ 0.05 | 0.025 (≈ 0.0635 µM) | 0.025 (≈ 0.0635 µM) | 0.05 (≈ 0.127 µM) | 0.05 (≈ 0.127 µM) | ≤ 0.05 | 0.2 (≈ 0.508 µM) | 0.0125 (≈ 0.0317 µM) | 0.1 (≈ 0.254 µM) | 0.05 (≈ 0.127 µM) | 0.025 (≈ 0.0635 µM) | 0.05 (≈ 0.127 µM) | 0.0125 (≈ 0.0317 µM) | 0.39 (≈ 0.99 µM) |  |
| CC1CN(c2c(F)cc3c(=O)c(C(=O)O)cn(C4CC4)c3c2Cl)CC1N (stereo not drawn) [Example 7, 7-(3-Amino-4-methyl-1-pyrrolidinyl)-8-chloro-1-cyclopropyl-6-fluoro-1,4-dihydro-4-oxo-3-quinolinecarboxylic acid] | 0.05 (≈ 0.132 µM) | 0.05 (≈ 0.132 µM) | 0.05 (≈ 0.132 µM) | 0.0125 (≈ 0.0329 µM) | 0.0063 (≈ 0.0166 µM) | 0.025 (≈ 0.0658 µM) | 0.025 (≈ 0.0658 µM) | 0.2 (≈ 0.527 µM) | 0.78 (≈ 2.05 µM) | 0.1 (≈ 0.263 µM) | 0.2 (≈ 0.527 µM) | 0.025 (≈ 0.0658 µM) | 0.0063 (≈ 0.0166 µM) | 0.05 (≈ 0.132 µM) | 0.05 (≈ 0.132 µM) | 0.78 (≈ 2.05 µM) |  |
| CNCC1CN(c2c(F)cc3c(=O)c(C(=O)O)cn(C4CC4)c3c2Cl)CC1C (stereo not drawn) [Example 12, 8-Chloro-1-cyclopropyl-6-fluoro-1,4-dihydro-7-(3-methylaminomethyl-4-methyl-1-pyrrolidinyl)-4-oxo-3-quinolinecarboxylic acid] | 0.05 (≈ 0.123 µM) | 0.2 (≈ 0.49 µM) | 0.1 (≈ 0.245 µM) | 0.025 (≈ 0.0613 µM) | 0.05 (≈ 0.123 µM) | 0.2 (≈ 0.49 µM) | 0.1 (≈ 0.245 µM) | 0.2 (≈ 0.49 µM) | 0.78 (≈ 1.91 µM) | 0.05 (≈ 0.123 µM) | 0.39 (≈ 0.956 µM) | 0.05 (≈ 0.123 µM) | 0.025 (≈ 0.0613 µM) | 0.2 (≈ 0.49 µM) | 0.05 (≈ 0.123 µM) | 0.78 (≈ 1.91 µM) |  |
| CNCC1CN(c2c(F)cc3c(=O)c(C(=O)O)cn(C4CC4)c3c2F)CC1C (stereo not drawn) [Example 13, 1-Cyclopropyl-6,8-difluoro-1,4-dihydro-7-(3-methylaminomethyl-4-methyl-1-pyrrolidinyl)-4-oxo-3-quinolinecarboxylic acid] | ≤ 0.05 | 0.39 (≈ 0.996 µM) | 0.78 (≈ 1.99 µM) | 0.05 (≈ 0.128 µM) | 0.05 (≈ 0.128 µM) | 0.1 (≈ 0.255 µM) | 0.1 (≈ 0.255 µM) | 0.39 (≈ 0.996 µM) | 1.56 (≈ 3.99 µM) | 0.1 (≈ 0.255 µM) | 0.39 (≈ 0.996 µM) | 0.05 (≈ 0.128 µM) | 0.05 (≈ 0.128 µM) | 0.2 (≈ 0.511 µM) | 0.05 (≈ 0.128 µM) | 1.56 (≈ 3.99 µM) |  |
| CCNCC1CN(c2c(F)cc3c(=O)c(C(=O)O)cn(C4CC4)c3c2Cl)CC1C (stereo not drawn) [Example 14, 8-Chloro-1-cyclopropyl-7-(3-ethylaminomethyl-4-methyl-1-pyrrolidinyl)-6-fluoro-1,4-dihydro-4-oxo-3-quinolinecarboxylic acid] | ≤ 0.05 | 0.39 (≈ 0.924 µM) | 0.05 (≈ 0.119 µM) | 0.05 (≈ 0.119 µM) | 0.025 (≈ 0.0593 µM) | 0.1 (≈ 0.237 µM) | 0.2 (≈ 0.474 µM) | 0.2 (≈ 0.474 µM) | 1.56 (≈ 3.7 µM) | 0.05 (≈ 0.119 µM) | 0.78 (≈ 1.85 µM) | 0.1 (≈ 0.237 µM) | 0.025 (≈ 0.0593 µM) | 0.2 (≈ 0.474 µM) | 0.0125 (≈ 0.0296 µM) | 1.56 (≈ 3.7 µM) |  |
| CCNCC1CN(c2c(F)cc3c(=O)c(C(=O)O)cn(C4CC4)c3c2F)CC1C (stereo not drawn) [Example 15, 1-Cyclopropyl-7-(3-ethylaminomethyl-4-methyl-1-pyrrolidinyl)-6,8-difluoro-1,4-dihydro-4-oxo-3-quinolinecarboxylic acid] | ≤ 0.05 | 0.39 (≈ 0.962 µM) | 0.39 (≈ 0.962 µM) | 0.05 (≈ 0.123 µM) | 0.05 (≈ 0.123 µM) | 0.1 (≈ 0.247 µM) | 0.2 (≈ 0.493 µM) | 0.39 (≈ 0.962 µM) | 3.13 (≈ 7.72 µM) | 0.1 (≈ 0.247 µM) | 0.78 (≈ 1.92 µM) | 0.1 (≈ 0.247 µM) | 0.05 (≈ 0.123 µM) | 0.2 (≈ 0.493 µM) | 0.05 (≈ 0.123 µM) | 1.56 (≈ 3.85 µM) |  |
